Experimental data published in ChEMBL document CHEMBL4382239, “Pharmaceutical significance of azepane based motifs for drug discovery: A critical review” (Eur J Med Chem, 2019).
≈ marks a conversion by molar mass, not a printed value.

Assays:
[1] = Inhibition of 6His-tagged Mycobacterium tuberculosis inorganic pyrophosphatase using tetrasodium PPi as substrate after 8 mins by malachite green dye-based colorimetric analysis
[2] = test system: Staphylococcus aureus; assay: Antibacterial activity against Staphylococcus aureus; type: functional
[3] = target: T1, Beta-galactosidase (Aspergillus oryzae, UniProt B7VU80); assay: Inhibition of Aspergillus oryzae beta-galactosidase
T1 sequence (B7VU80 whole entry): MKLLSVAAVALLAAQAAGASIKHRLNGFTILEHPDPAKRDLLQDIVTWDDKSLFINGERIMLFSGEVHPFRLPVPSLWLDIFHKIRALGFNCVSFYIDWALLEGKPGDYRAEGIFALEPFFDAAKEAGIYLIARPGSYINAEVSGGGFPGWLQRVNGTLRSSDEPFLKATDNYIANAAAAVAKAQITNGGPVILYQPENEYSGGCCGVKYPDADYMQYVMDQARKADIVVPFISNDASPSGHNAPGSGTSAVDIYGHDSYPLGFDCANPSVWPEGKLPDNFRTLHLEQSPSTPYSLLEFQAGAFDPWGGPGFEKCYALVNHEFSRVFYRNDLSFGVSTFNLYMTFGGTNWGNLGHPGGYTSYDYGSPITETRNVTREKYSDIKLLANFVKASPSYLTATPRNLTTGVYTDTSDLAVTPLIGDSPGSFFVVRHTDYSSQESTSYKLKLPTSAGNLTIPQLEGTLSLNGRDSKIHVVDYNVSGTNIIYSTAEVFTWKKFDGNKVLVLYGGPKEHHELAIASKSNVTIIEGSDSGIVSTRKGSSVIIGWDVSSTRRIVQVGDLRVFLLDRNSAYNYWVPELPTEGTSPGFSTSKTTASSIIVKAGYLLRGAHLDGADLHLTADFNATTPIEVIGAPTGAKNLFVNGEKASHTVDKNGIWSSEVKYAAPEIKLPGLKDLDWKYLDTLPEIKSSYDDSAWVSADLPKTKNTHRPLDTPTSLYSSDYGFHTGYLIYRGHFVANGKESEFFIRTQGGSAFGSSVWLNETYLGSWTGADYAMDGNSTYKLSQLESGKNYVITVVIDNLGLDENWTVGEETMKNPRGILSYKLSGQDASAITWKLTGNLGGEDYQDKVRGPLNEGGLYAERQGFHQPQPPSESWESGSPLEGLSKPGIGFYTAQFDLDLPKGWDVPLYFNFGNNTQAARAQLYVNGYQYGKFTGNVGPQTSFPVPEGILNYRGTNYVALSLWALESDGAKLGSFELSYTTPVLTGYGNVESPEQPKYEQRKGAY

[4] = test system: Micrococcus luteus; assay: Antibacterial activity against Micrococcus luteus ATCC 4698 incubated for 16 to 18 hrs by serial plate dilution method; type: functional
[5] = test system: Staphylococcus aureus; assay: Antibacterial activity against Staphylococcus aureus ATCC 25923 incubated for 16 to 18 hrs by serial plate dilution method; type: functional
[6] = test system: Bacillus subtilis; assay: Antibacterial activity against Bacillus subtilis incubated for 16 to 18 hrs by serial plate dilution method; type: functional
[7] = test system: Escherichia coli; assay: Antibacterial activity against Escherichia coli DH52 incubated for 16 to 18 hrs by serial plate dilution method; type: functional
[8] = test system: Salmonella typhi; assay: Antibacterial activity against […] incubated for 16 to 18 hrs by serial plate dilution method; type: functional, Salmonella enterica subsp. enterica serovar Typhi; conditions: Salmonella enterica
[9] = test system: Shigella dysenteriae; assay: Antibacterial activity against Shigella dysenteriae incubated for 16 to 18 hrs by serial plate dilution method; type: functional
[10] = test system: Pseudomonas aeruginosa; assay: Antibacterial activity against Pseudomonas aeruginosa incubated for 16 to 18 hrs by serial plate dilution method; type: functional
[11] = species: Bos taurus; assay: Competitive inhibition of bovine epididymis alpha-L-fucosidase at 1 mM relative to control
[12] = Competitive inhibition of bovine epididymis alpha-L-fucosidase; parameters: species or system Bos taurus
[13] = target: Protein farnesyltransferase (Homo sapiens, UniProt P49354+P49356); assay: Inhibition of human recombinant FTase using [3H]FPP as substrate after 15 mins by scintillation counting analysis; type: protein-complex assay
[14] = test system: Rattus norvegicus; assay: Anticonvulsant activity in Wistar rat assessed as protection against MES-induced seizures at 15 mg/kg dosed via gastric tube; type: functional
[15] = target: Alpha-galactosidase (Coffea arabica, UniProt Q42656); assay: Inhibition of green coffee bean alpha-galactosidase
Alpha-galactosidase, sequence (Q42656 whole entry): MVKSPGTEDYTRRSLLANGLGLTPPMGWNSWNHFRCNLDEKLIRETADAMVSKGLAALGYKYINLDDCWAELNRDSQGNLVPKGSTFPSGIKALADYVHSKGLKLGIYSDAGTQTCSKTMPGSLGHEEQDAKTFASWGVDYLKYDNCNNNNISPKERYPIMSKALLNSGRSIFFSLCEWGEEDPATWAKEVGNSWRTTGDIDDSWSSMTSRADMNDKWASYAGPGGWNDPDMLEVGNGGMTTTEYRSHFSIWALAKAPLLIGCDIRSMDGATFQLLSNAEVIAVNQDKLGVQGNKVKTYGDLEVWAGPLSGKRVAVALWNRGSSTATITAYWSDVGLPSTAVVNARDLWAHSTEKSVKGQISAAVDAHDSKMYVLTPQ

[16] = test system: Prunus dulcis; assay: Competitive inhibition of almond beta-glucosidase at 1 mM relative to control
[17] = Competitive inhibition of almond beta-glucosidase; parameters: species or system Prunus dulcis
[18] = test system: HCT-116; assay: Cytotoxicity against human HCT116 cells; type: functional
[19] = test system: HT-29; assay: Cytotoxicity against human HT-29 cells; type: functional
[20] = test system: MCF7; assay: Cytotoxicity against human MCF7 cells; type: functional
[21] = target: T2, Beta-galactosidase (Homo sapiens, UniProt P16278); assay: Inhibition of beta-galactosidase (unknown origin)
T2 sequence (P16278 whole entry): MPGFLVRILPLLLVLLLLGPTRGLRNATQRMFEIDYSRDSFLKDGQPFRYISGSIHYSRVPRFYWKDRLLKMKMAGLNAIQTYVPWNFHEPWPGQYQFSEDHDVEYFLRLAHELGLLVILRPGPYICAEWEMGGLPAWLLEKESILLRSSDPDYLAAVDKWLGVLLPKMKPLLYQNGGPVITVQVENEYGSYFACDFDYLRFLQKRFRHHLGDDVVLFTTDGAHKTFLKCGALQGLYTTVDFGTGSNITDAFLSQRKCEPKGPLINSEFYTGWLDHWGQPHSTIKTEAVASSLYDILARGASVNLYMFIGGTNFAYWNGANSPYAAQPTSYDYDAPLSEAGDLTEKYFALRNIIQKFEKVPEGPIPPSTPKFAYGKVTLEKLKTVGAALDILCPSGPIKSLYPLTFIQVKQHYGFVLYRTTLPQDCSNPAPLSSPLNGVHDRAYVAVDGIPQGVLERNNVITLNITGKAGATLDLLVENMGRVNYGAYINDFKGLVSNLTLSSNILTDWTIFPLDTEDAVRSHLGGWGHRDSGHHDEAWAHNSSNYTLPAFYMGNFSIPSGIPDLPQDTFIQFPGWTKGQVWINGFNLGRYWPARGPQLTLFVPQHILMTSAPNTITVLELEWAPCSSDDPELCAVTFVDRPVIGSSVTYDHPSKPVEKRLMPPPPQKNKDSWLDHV

**Q.** Which IC50 [1] does the source give for CCCCN(CCCC)c1nc(-c2cccn2CCc2ccccc2)nc(N2CCCCCC2)n1 here?
**A.** 23 µM

**Q.** Which MIC [2] does the source give for NC[C@H]1O[C@H](O[C@H]2C[C@H](CO)NCC[C@H]2N)[C@H](N)[C@@H](O)[C@@H]1O here?
**A.** 32 µg/mL (≈ 99.9 µM)

**Q.** For O=C(O)C[C@H]1NC[C@@H](O)[C@H](O)[C@H](O)[C@H]1O, which IC50 [3] is on record?
**A.** 21 µM

**Q.** Which IC50 [3] does the source give for O=C(O)C[C@@H]1NC[C@H](O)[C@H](O)[C@H](O)[C@H]1O here?
**A.** 279 µM

**Q.** For COC(=O)C1CCCCN(c2ccc(Cl)cc2)C1C(=O)OC (stereo not drawn), which MIC [4] is on record?
**A.** 2 to 32 µg/mL (≈ 6.14 to 98.2 µM)

**Q.** And the MIC [5]?
**A.** 2 to 32 µg/mL (≈ 6.14 to 98.2 µM)

**Q.** What about the MIC [6] of the same compound?
**A.** 2 to 32 µg/mL (≈ 6.14 to 98.2 µM)

**Q.** And the MIC [7]?
**A.** 2 to 32 µg/mL (≈ 6.14 to 98.2 µM)

**Q.** And the MIC [8]?
**A.** 2 to 32 µg/mL (≈ 6.14 to 98.2 µM)

**Q.** And the MIC [9]?
**A.** 2 to 32 µg/mL (≈ 6.14 to 98.2 µM)

**Q.** And the MIC [10]?
**A.** 2 to 32 µg/mL (≈ 6.14 to 98.2 µM)

**Q.** What does the source list for O=C(O)[C@H]1CNC[C@@H](O)[C@H](O)[C@H]1O?
**A.** inhibition [11]: 99%; Ki [12]: 41 µM

**Q.** With CCC1CCCN(C)C(=O)[C+]1c1cccc(Oc2cc(C(C)(N)c3cncn3C)ccc2C#N)c1 (stereo not drawn) as the compound, how does the IC50 [13] read?
**A.** 0.06 nM

**Q.** With O=C(O)C[C@H]1NC[C@@H](O)[C@@H](O)[C@H](O)[C@H]1O as the compound, how does the IC50 [3] read?
**A.** 215 µM

**Q.** Which Activity [14] does the source give for NC(=O)N1c2ccccc2C/C(=N\O)c2ccccc21 here?
**A.** 90%

**Q.** With NC[C@H]1O[C@H](OC2C[C@H](CO)NCC[C@@H]2N)[C@H](N)[C@@H](O)[C@@H]1O (stereo partly drawn) as the compound, how does the MIC [2] read?
**A.** 64 µg/mL (≈ 200 µM)

**Q.** With OC[C@H]1NC[C@H](O)[C@H](O)[C@@H](O)[C@@H]1O as the compound, how does the Ki [15] read?
**A.** 2.2 µM

**Q.** With C[C@@H]1CNC[C@@H](O)[C@H](O)[C@H]1O as the compound, how does the inhibition [16] read?
**A.** 100%

**Q.** What about the Ki [17] of the same compound?
**A.** 2.5 µM

**Q.** Which MIC [4] does the source give for COC(=O)C1CCCCN(c2ccccn2)C1C(=O)OC (stereo not drawn) here?
**A.** 1 to 16 µg/mL (≈ 3.42 to 54.7 µM)

**Q.** And the MIC [5]?
**A.** 1 to 16 µg/mL (≈ 3.42 to 54.7 µM)

**Q.** And the MIC [6]?
**A.** 1 to 16 µg/mL (≈ 3.42 to 54.7 µM)

**Q.** And the MIC [7]?
**A.** 1 to 16 µg/mL (≈ 3.42 to 54.7 µM)

**Q.** And the MIC [8]?
**A.** 1 to 16 µg/mL (≈ 3.42 to 54.7 µM)

**Q.** What about the MIC [9] of the same compound?
**A.** 1 to 16 µg/mL (≈ 3.42 to 54.7 µM)

**Q.** And the MIC [10]?
**A.** 1 to 16 µg/mL (≈ 3.42 to 54.7 µM)

**Q.** Which IC50 [1] does the source give for CN(C)c1nc(-c2cccn2-c2ccccc2)nc(N(C)C)n1 here?
**A.** 540 µM

**Q.** Which IC50 [1] does the source give for c1ccc(-n2cccc2-c2nc(N3CC3)nc(N3CC3)n2)cc1 here?
**A.** 130 µM

**Q.** Which results are given for CC(C)O[C@H]1[C@H](OC(C)C)[C@H](O)CN(Cc2ccc(OCCCOc3ccc(CN4C[C@@H](O)[C@@H](OC(C)C)[C@H](OC(C)C)[C@H](O)C4)cc3)cc2)C[C@H]1O?
**A.** GI50 [18]: 6 µM; GI50 [19]: 23 µM; GI50 [20]: 24 µM

**Q.** For CCCC[C@@H]1C[C@@H](O)[C@@H](O)[C@@H](O)CN1, which IC50 [21] is on record?
**A.** 3 µM
